We go through 18 compounds from patent US12116424B2, “Compounds and compositions for modulating Listeria virulence” (priority 2021, dated 2024).

Like-named read-outs stand apart in the source and are kept apart here. Where a SMILES comes first, the peptide text is derived from it. Bridges are numbered along the chain shown (N, C = ends). [ ]: non-standard residue; d: D form. Dap = NC[C@H](N)C(=O)O

Assay [1] deals with T1, L. monocytogenes AgrC (Listeria monocytogenes serovar 1/2a, UniProt Q8YAR5). The assay is described as follows: Fluorescence (agr-GFP) reporter antagonism assay, wild-type EGD-e reporter strain. The assay is classed as cell-based. An excerpt: (§1) Construction of Listeria agr Reporter Strains. A gene block was designed and purchased from Integrated DNA Technologies to contain an EagI recognition site, the PII promoter of the agr system, the 3′ UTR of hly, super folder GFP, and a SaII recognition site. The gene block was digested with EagI and SaII, cloned into an EagI/SaII-cut pAM401 plasmid resulting in the plasmid pAM401-KW1, and then transformed into E. coli XL1-Blue competent cells. The insertion into pAM401 was confirmed using Kapa polymerase and primers DAP337 and DAP338, and additional confirmation via commercial sequencing. Purified plasmid was transformed into the conjugative E. coli S17 strain, which was used to conjugate to EGD-e and EGD-e ΔagrD to generate the agr-GFP reporter strains EGD-e:pAM401-KW1 and EGD-e ΔagrD:pAM401-KW1. Conjugation was verified using primers DAP337 and DAP338.
(§2) Fluorescence reporter assay protocol. For QS (agr) reporter assays, peptide stock solutions in DMSO (1 mM) were serially diluted in DMSO, and 2 μL of solution was added to each well in a black 96-well plate (polystyrene microtiter plate, Costar). Agonism assays utilized the ΔagrD reporter strain, with 2 μL of 100 μM AIP (final concentration 1 μM) as a positive control and 2 μL of DMSO as a negative control. Antagonism assays utilized the EGD-e reporter strain, with 2 μL of DMSO as a positive control. In both assays, wells containing only BHI media served as negative controls for normalization. An overnight culture of bacteria was diluted 1:50 in fresh BHI, then 198 μL were transferred to each well (excluding the media control wells). Plates were then incubated at 37° C. for 24 hours with shaking at 200 rpm. Fluorescence of GFP (excitation at 500 nm, emission at 540 nm) and OD600 of each well was measured using BioTek Synergy 2 plate reader. Measurements were processed by subtracting background fluorescence (BHI media), correcting by OD600, and the normalizing using the 1 μM AIP or the DMSO control for the agonism and antagonism assays, respectively. Non-linear regression curves were fitted to the data sets in GraphPad Prism 7 by using variable slope (four-parameter) dose-response analysis to obtain potency, efficacy, and statistical information about the activity of tested peptides. Each peptide was tested with three technical replicates and three biological replicates. All data derived from fluorescent reporter strains are represented with data points signifying the mean and error bars signifying the standard deviation from all replicates.
Preparation and Validation of Listeria agr Reporter Strains. […] However, adding exogenous AIP to the ΔagrD reporter results in an increase of fluorescence, indicating agr activity has been restored.

The target of assay [2] is T1, L. monocytogenes AgrC. The assay is described as follows: Fluorescence (agr-GFP) reporter agonism assay, ΔagrD reporter strain. The assay is classed as cell-based. Set-up: Emax: dose or concentration left out as unconfirmed. The following applies: for agonism activity (in words): ΔagrD reporter; for loss in potency: agonism, relative to native AIP.
From the text: as §1, §2
Preparation and Validation of Listeria agr Reporter Strains. In order to facilitate profiling the native AIP and its analogs for agr activity, L. monocytogenes agr GFP reporters were designed and constructed as described above (see Materials and General Methods). Briefly, a plasmid containing the agr promoter region upstream of gfp was transformed into wild-type (EGD-e) and ΔagrD L. monocytogenes strains. The wild-type reporter naturally produces its own AIP and is able to activate AgrC, which may subsequently phosphorylate AgrA for productive binding to DNA and triggering the production of GFP (FIG. 1A). The ΔagrD reporter, lacking the ability to produce its own AIP and thereby activate AgrC, is unable to trigger substantial production of GFP. However, adding exogenous AIP to the ΔagrD reporter results in an increase of fluorescence, indicating agr activity has been restored.

Where [3] appears, read: read-out: Max Activation Observed.

T1 sequence (Q8YAR5 entry or part of it): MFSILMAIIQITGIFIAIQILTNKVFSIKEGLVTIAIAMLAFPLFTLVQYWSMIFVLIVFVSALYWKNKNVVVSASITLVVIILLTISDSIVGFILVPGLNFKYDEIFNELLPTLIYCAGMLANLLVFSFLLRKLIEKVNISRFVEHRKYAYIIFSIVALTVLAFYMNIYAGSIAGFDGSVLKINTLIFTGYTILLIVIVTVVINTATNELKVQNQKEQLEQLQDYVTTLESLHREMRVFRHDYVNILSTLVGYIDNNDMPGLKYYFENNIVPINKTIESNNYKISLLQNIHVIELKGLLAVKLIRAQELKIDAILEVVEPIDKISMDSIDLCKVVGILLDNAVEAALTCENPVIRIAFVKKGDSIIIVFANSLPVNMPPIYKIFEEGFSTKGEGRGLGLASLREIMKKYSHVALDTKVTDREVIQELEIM

With `CSCC[C@@H]1NC(=O)[C@@H](Cc2ccccc2)NC(=O)[C@@H](NC(=O)[C@H](C)N)CSC(=O)[C@H](C(C)C)NC(=O)[C@H](Cc2ccccc2)NC1=O` [AIP F3dF, A-(C-dF-M-F-V)] (H-AC[dF]MFV; thioester 2-C; N-terminus assumed), the “antagonism activity (in words)” value on L. monocytogenes AgrC [1] is “largely inactive”. Further, the Emax on L. monocytogenes AgrC [2] (setting [3]) was 6.63%. Besides, the “agonism activity (in words)” value on L. monocytogenes AgrC [2] is “largely inactive”.

In the case of `CSCC[C@@H]1NC(=O)[C@H](C)NC(=O)[C@@H](NC(=O)[C@H](C)N)CSC(=O)[C@H](C(C)C)NC(=O)[C@H](Cc2ccccc2)NC1=O` [AIP F3A, A-(C-A-M-F-V)] (H-ACAMFV; thioester 2-C; N-terminus assumed), the “antagonism activity (in words)” value on L. monocytogenes AgrC [1] is “no noticeable antagonism”. The Emax on L. monocytogenes AgrC [2] (setting [3]) was 9.72%. The “agonism activity (in words)” value at L. monocytogenes AgrC [2] is “abolished agonism activity”.

For `CSCC[C@@H]1NC(=O)[C@H](CC(C)C)NC(=O)[C@@H](NC(=O)[C@H](C)N)CSC(=O)[C@H](C(C)C)NC(=O)[C@H](Cc2ccccc2)NC1=O` [AIP F3L, A-(C-L-M-F-V)] (H-ACLMFV; thioester 2-C; N-terminus assumed), the Emax at L. monocytogenes AgrC [2] (setting [3]) amounted to 37.6%.

For `CSCC[C@@H]1NC(=O)[C@H](Cc2ccccc2)NC(=O)[C@@H](NC(=O)[C@@H](N)[C@@H](C)O)CSC(=O)[C@H](C(C)C)NC(=O)[C@H](Cc2ccccc2)NC1=O` [AIP A1T, T-(C-F-M-F-V)] (H-TCFMFV; thioester 2-C; N-terminus assumed), on L. monocytogenes AgrC [2] (setting [3]), the Emax amounted to 88.1%. For the same compound, the “agonism activity (in words)” value at L. monocytogenes AgrC [2] is recorded as “partial agonists with slightly diminished agonistic activity”.

`CC(C)C[C@@H]1NC(=O)[C@H](C(C)C)NC(=O)[C@@H](NC(=O)[C@@H](N)CO)CSC(=O)[C@H](CC(C)C)NC(=O)[C@H](Cc2c[nH]cn2)NC1=O` [L. weihenstephanensis AIP, S-(C-V-L-H-L), reference compound] (H-SCVLHL; thioester 2-C; N-terminus assumed): the Emax on L. monocytogenes AgrC [2] (read-out: Max Activation) was found to be 11.2%.

Regarding `CSCC[C@H]1NC(=O)[C@H](Cc2ccccc2)NC(=O)[C@@H](NC(=O)[C@H](C)NC(=O)[C@@H](N)CCCCN)CSC(=O)[C@H](C(C)C)NC(=O)[C@H](Cc2ccccc2)NC1=O` [7-mer M5dM, K-A-(C-F-dM-F-V)] (H-KACF[dM]FV; thioester 3-C; N-terminus assumed), the Emax at L. monocytogenes AgrC [2] (setting [3]) stood at 71.9%.

For the compound A-(C-F-M-A-V) [AIP F5A], on L. monocytogenes AgrC [1], the “antagonism activity (in words)” value was “no noticeable antagonism”. For the same compound, the “Max Activation Observed” value at L. monocytogenes AgrC [2] (Table 6, normalized with 1 μM AIP (100%) and media (0%) in ΔagrD reporter) stood at 6.37%. For the same compound, the “agonism activity (in words)” value at L. monocytogenes AgrC [2] is listed as “abolished agonism activity”.

With `CSCC[C@H]1NC(=O)[C@H](Cc2ccccc2)NC(=O)[C@H](NC(=O)[C@H](C)NC(=O)[C@@H](N)CCCCN)CSC(=O)[C@H](C(C)C)NC(=O)[C@H](Cc2ccccc2)NC1=O` [7-mer C3dC/M5dM, K-A-(dC-F-dM-F-V)] (H-KA[dC]F[dM]FV; thioester 3-C; N-terminus assumed), the Emax on L. monocytogenes AgrC [2] (setting [3]) came out at 7.89%.

Regarding `CSCC[C@@H]1NC(=O)[C@H](Cc2ccc(O)cc2)NC(=O)[C@@H](NC(=O)[C@H](C)N)CSC(=O)[C@H](C(C)C)NC(=O)[C@H](Cc2ccccc2)NC1=O` [AIP F3Y, A-(C-Y-M-F-V)] (H-ACYMFV; thioester 2-C; N-terminus assumed), the Emax at L. monocytogenes AgrC [2] (setting [3]) was 47.4%.

Consider `CSCC[C@@H]1NC(=O)[C@H](Cc2ccccc2)NC(=O)[C@@H](NC(C)=O)CSC(=O)[C@H](C(C)C)NC(=O)[C@H](Cc2ccccc2)NC1=O` [Ac-5-mer, Ac-(C-F-M-F-V)] (Ac-CFMFV; thioester 1-C), for which the Emax at L. monocytogenes AgrC [2] (read-out: Max Activation) amounted to 75.3%.

Regarding `CSCC[C@@H]1NC(=O)[C@H](Cc2c[nH]c3ccccc23)NC(=O)[C@@H](NC(=O)[C@H](C)N)CSC(=O)[C@H](C(C)C)NC(=O)[C@H](Cc2ccccc2)NC1=O` [AIP F3W, A-(C-W-M-F-V)] (H-ACWMFV; thioester 2-C; N-terminus assumed), the Emax at L. monocytogenes AgrC [2] (setting [3]) worked out at 60.6%.

Turning to `CSCC[C@@H]1NC(=O)[C@H](Cc2ccccc2)NC(=O)[C@@H](NC(=O)[C@H](C)N)CSC(=O)[C@H](C)NC(=O)[C@H](Cc2ccccc2)NC1=O` [AIP V6A, A-(C-F-M-F-A)] (H-ACFMFA; thioester 2-C; N-terminus assumed), the Emax at L. monocytogenes AgrC [2] (read-out: Max Activation) and at L. monocytogenes AgrC [2] (setting [3]) was 69% throughout. Besides, on L. monocytogenes AgrC [2], the “agonism activity (in words)” value is “decreased potency and agonism compared to the native AIP”.

As for `CSCC[C@@H]1NC(=O)[C@H](Cc2ccccc2)NC(=O)[C@@H](N)CSC(=O)[C@H](C(C)C)NC(=O)[C@H](Cc2ccccc2)NC1=O` [Compound 5-mer, (C-F-M-F-V)] (H-CFMFV; thioester 1-C), at L. monocytogenes AgrC [2], the loss in potency result was “ten-fold” and the “agonism activity (in words)” value is recorded as “fully maintained its agonism activity”. Besides, at L. monocytogenes AgrC [2] (read-out: Max Activation), the Emax worked out at 110%.

Turning to `CSCC[C@@H]1NC(=O)[C@H](Cc2ccccc2)NC(=O)[C@@H](NC(=O)[C@H](C)N)CSC(=O)[C@H](C(C)C)NC(=O)[C@H](Cc2c[nH]cn2)NC1=O` [AIP F5H, A-(C-F-M-H-V)] (H-ACFMHV; thioester 2-C; N-terminus assumed), the Emax on L. monocytogenes AgrC [2] (setting [3]) worked out at 7.13%.

Regarding `CSCC[C@@H]1NC(=O)[C@H](Cc2ccccc2)NC(=O)[C@@H](NC(=O)[C@H](C)NC(=O)[C@H](CCCCN)NC(=O)[C@@H](N)CO)CSC(=O)[C@H](C(C)C)NC(=O)[C@H](Cc2ccccc2)NC1=O` [Compound 8-mer, S-K-A-(C-F-M-F-V)] (H-SKACFMFV; thioester 4-C; N-terminus assumed), the Emax on L. monocytogenes AgrC [2] (read-out: Max Activation) came out at 71.5%.

For the compound `CSCC[C@@H]1NC(=O)[C@H](Cc2ccccc2)NC(=O)[C@@H](NC(=O)[C@H](C)N)CSC(=O)[C@H](C(C)C)NC(=O)[C@@H](Cc2ccccc2)NC1=O` [AIP F5dF, A-(C-F-M-dF-V)] (H-ACFM[dF]V; thioester 2-C; N-terminus assumed), on L. monocytogenes AgrC [2], the loss in potency result is recorded as “two orders of magnitude” and the “agonism activity (in words)” value is on record as “maintain some agonism activity”. For the same compound, at L. monocytogenes AgrC [2] (setting [3]), the Emax is 72.3%.

Consider `CSCC[C@@H]1NC(=O)[C@H](Cc2ccccc2)NC(=O)[C@@H](NC(=O)[C@H](C)N)CSC(=O)[C@H](C(C)C)NC(=O)[C@H](CC(C)C)NC1=O` [AIP F5L, A-(C-F-M-L-V)] (H-ACFMLV; thioester 2-C; N-terminus assumed), for which, on L. monocytogenes AgrC [2] (setting [3]), the Emax was 64.8%.

`CSCC[C@@H]1NC(=O)[C@H](Cc2ccccc2)NC(=O)[C@@H](NC(=O)[C@H](C)N)CNC(=O)[C@H](C(C)C)NC(=O)[C@H](Cc2ccccc2)NC1=O` [AIP C2Dap, A-(Dap-F-M-F-V)] (H-A[Dap]FMFV; lactam 2-C; N-terminus assumed): at L. monocytogenes AgrC [2], the loss in potency is on record as 10 fold and the “agonism activity (in words)” value is “largely retains the activation activity of the native AIP”. Further, the Emax on L. monocytogenes AgrC [2] (setting [3]) was 92.9%.
